Assay results taken from patent publication US20100331363A1, “TREATMENT OF MITOCHONDRIAL DISORDERS USING A FARNESYL TRANSFERASE INHIBITOR” (Link Medicine Corporation, priority 2008, published 2010).
Entries after “also recorded” stand apart in the source; their conditions may differ. Read-outs that look alike come from different tables or passages of the source.

How the values were obtained:
[1] = Pharmacokinetics of LNK-754-TS in mice, oral; type: in vivo, mouse; settings: for MRT inf: read-out: MRT(0-∞)
Text: In the experimental data represented in Table 2A, a different method of drug delivery is used (oral) than in the experiment represented in FIG. 3. The best way to compare the relative coverage of the two delivery methods (oral and continuous infusion) is by comparing area-under-the-curve (AUC) values. We can compare the calculated AUC values for the continuous infusion oncology study presented in FIG. 3 and the AUC values associated with the synuclein model doses in the table. […] The AUCs of orally dosed LNK-754-TS at 0.9 mg/kg and at 0.09 mg/kg QD are 34.6 and […], respectively.
The pharmacokinetic profiles of LNK-754-TS and Zarnestra® were analyzed using methods known in the art. The results are shown in FIGS. 13-14 and the tables below.

[2] = tested on: aged non-transgenic rats; experiment: Morris water maze in aged non-transgenic rats; type: in vivo, rat; settings: aged rats 22 months, 0.3 mg/kg and 0.9 mg/kg once every 24 hours
Text: Morris water maze (MWM) analysis of cognitive performance: In APP/PS1 transgenic animals, swimming behavior in a Morris Water Maze was videotaped and analyzed (Ethovision, Noldus, Wageningen, Netherlands). For mice, a place navigation test was used to locate the hidden platform in five blocks of three trials over three consecutive days. Each trial consists of a forced swim test of maximum 120 seconds, followed by 60 seconds of rest. The time each mouse needed for location of the platform was measured. For rats, a cued learning phase was first conducted, consisting of 3 trials per day for 5 days, using a visible platform of varying location. Each trial consisted of a forced swim test of maximum 60 seconds, followed by 10 minutes of rest. The time and path length each rat needed to locate the platform was measured.
In order to rule out the possibility that the rapid observed improvement in cognition described above arose from an alternative, transgene-independent mechanism, aged non-transgenic rats (22 months old) were treated with LNK-754-TS (0.3 mg/kg and 0.9 mg/kg, once every 24 hours) and their cognitive performance was measured by MWM and compared to that of younger rats (3 months old) of the same strain.

[3] = tested on: HDJ2; experiment: Inhibition of HDJ2 farnesylation in SH-SY5Y cells; type: cell-based, human; settings: continuous exposure over long periods
[4] = tested on: APP/PS1 transgenic mice; experiment: Morris water maze in APP/PS1 transgenic mice; type: in vivo, mouse; settings: 0.9 mg/kg once every 24 hours, vs vehicle
Protocol: Animals and treatments: Male and female human WT alpha-synuclein over-expressing transgenic mice^32 at 6 months of age were given vehicle (10% beta-cyclodextrin) or LNK-754-TS (0.09, 0.9 and 9 mg/kg) per oral gavage twice daily for 3 months or animals at 7 months of age were given vehicle (2.5% beta-cyclodextrin) or LNK-754-TS (2 mg/kg) once every three days for 3 months. Male and female TAU transgenic mice expressing TAU441 bearing the missense mutations V337M^50 and R406W under the control of the murine Thy-1 promoter with a CB6xC57BL/6 background were 5 months old at the time when the oral treatment for three months with LNK-754-TS (0.9 and 0.09 mg/kg) as well as vehicle (2.5% beta-cyclodextrin) was started. Female human APP/PS1 (APP (London V7171)/PS1(A246E)) over-expressing transgenic mice were treated with LNK-754-TS (0.9 mg/kg) or vehicle (2.5% beta-cyclodextrin) for 2 months or 12 days.
Morris water maze (MWM) analysis of cognitive performance: In APP/PS1 transgenic animals, swimming behavior in a Morris Water Maze was videotaped and analyzed (Ethovision, Noldus, Wageningen, Netherlands). For mice, a place navigation test was used to locate the hidden platform in five blocks of three trials over three consecutive days. […] The time each mouse needed for location of the platform was measured. […] The time and path length each rat needed to locate the platform was measured. […]

[5] = tested on: autophagy-related gene transcripts; experiment: mRNA of autophagy-related genes (Atg1, p62) in SH-SY5Y cells; type: cell-based, human; settings: 100 nM
Protocol: Quantitative real-time PCR: Gene expression profiles were done by qPCR on series of known autophagy genes. RNA was extracted with Tri-reagent (Sigma), and cDNAs generated using iScript (Biorad). qPCR analysis was carried out in a 96 well plate using an iCycler (BioRad, Hercules, Calif.), and iQ SYBR Green Supermix (Biorad) according to the manufacturer's specifications.
Rapamycin is a well-characterized autophagy stimulator that acts through inhibition of mTOR, a kinase involved in nutrient signaling and regulation of cell growth and survival.

[6] = tested on: isolated islet cells; experiment: Insulin secretion assay, isolated islet cells; type: cell-based; settings: for increase in insulin stimulation: 10 nM, high glucose conditions (15 mM)
Protocol: One example of such an assay is as follows: prior to glucose-induced insulin secretion, cells were cultured for two hours in RPMI containing 3 mM glucose without serum. Cells were then washed and preincubated for 30 min in modified Krebs-Ringer bicarbonate buffer (KRB) containing (in mM): 119 NaCl, 4.6 KCl, 5 NaHCO3, 2 CaCl2, 1 MgSO4, 0.15 Na2HPO4, 0.4 KH2PO4, 20 HEPES, 2 glucose, 0.05% BSA, pH 7.4. This was followed by 30 min incubation in media containing either 3 mM glucose (to simulate low glucose conditions) or 15 mM glucose (to simulate high glucose conditions). Media are treated with varying concentrations of compound (1 nM and 10 nM). Media was collected and stored at −20° C. for insulin measurement. Insulin was measured by ELISA.
In both graphs, insulin is measured in (pictogram/ml). […] The amount of insulin secretion stimulated is dependent on the concentration of compound, incubation time, and cell-type. […] This distinguishes the effect of LNK-754 from sulfonyl urea compounds, the current standard oral anti-diabetic drug which increases insulin secretion under all conditions (not desired).

[7] = C57BL/6, mouse, in vivo, po, 9 mg/kg, Group 5 (9 mg/kg SID), C57BL/6 mice, oral
[8] = C57BL/6, mouse, in vivo, po, 9 mg/kg, Group 6 (9 mg/kg BID), C57BL/6 mice, oral
[9] = C57BL/6, mouse, in vivo, po, 9 mg/kg, Group 9 (9 mg/kg Day 5), C57BL/6 mice, oral

C#Cc1cccc(-c2cc(=O)n(C)c3ccc([C@](O)(c4ccc(Cl)cc4)c4cncn4C)cc23)c1 [LNK-754-TS, (R)-6-[(4-chlorophenyl)-hydroxyl-(1-methyl-1-H-imidazol-5-yl)-methyl]-4-(3-ethynylphenyl)-1-methyl-2-(1H)-quinonlinone (2S, 3S)-dihydroxybutanedioate]
AUC ([1]; 0.9 mg/kg oral, QD day 1, 5% beta-cyclodextrin, mice): 34.6 ng·h/mL | Cmax ([1]; C57BL/6, mouse, in vivo, po, 0.09 mg/kg, 0.09 mg/kg oral, QD day 1, 5% beta-cyclodextrin, mice): 0.61 ng/mL | AUC ([1]; C57BL/6, mouse, in vivo, po, 0.09 mg/kg, 0.09 mg/kg oral, QD day 1, 5% beta-cyclodextrin, mice, read-out: AUC): 0.63 ng·h/mL | Cmax ([1]; C57BL/6, mouse, in vivo, po, 0.9 mg/kg, 0.9 mg/kg oral, QD day 1, 5% beta-cyclodextrin, mice): 31.1 ng/mL | AUC ([1]; C57BL/6, mouse, in vivo, po, 0.9 mg/kg, 0.9 mg/kg oral, QD day 1, 5% beta-cyclodextrin, mice, read-out: AUC): 34.6 ng·h/mL | AUC ([1]; C57BL/6, mouse, in vivo, po, 9 mg/kg, 9 mg/kg BID oral, mice (text summary of day 1 and day 5), read-out: AUC): 2000 to 2600 ng·h/mL | Cmax ([1]; C57BL/6, mouse, in vivo, po, 9 mg/kg, 9 mg/kg oral, BID day 1, 20% beta-cyclodextrin, mice): 1380 ng/mL | AUC ([1]; C57BL/6, mouse, in vivo, po, 9 mg/kg, 9 mg/kg oral, BID day 1, 20% beta-cyclodextrin, mice, read-out: AUC): 2100 ng·h/mL | Cmax ([1]; C57BL/6, mouse, in vivo, po, 9 mg/kg, 9 mg/kg oral, BID day 5, 20% beta-cyclodextrin, mice): 1480 ng/mL | AUC ([1]; C57BL/6, mouse, in vivo, po, 9 mg/kg, 9 mg/kg oral, BID day 5, 20% beta-cyclodextrin, mice, read-out: AUC): 2630 ng·h/mL | AUC(0-inf) [1, 7]: 752 ng·h/mL | AUC(0-t) [1, 7]: 730 ng·h/mL | Cmax [1, 7]: 318 ng/mL | half-life [1, 7]: 1.5 h | MRT inf [1, 7]: 2.38 h | AUC(0-inf) [1, 8]: 2290 ng·h/mL | AUC(0-t) [1, 8]: 2100 ng·h/mL | Cmax [1, 8]: 1390 ng/mL | half-life [1, 8]: 5.04 h | MRT inf [1, 8]: 2.67 h | AUC(0-inf) [1, 9]: 2630 ng·h/mL | AUC(0-t) [1, 9]: 2630 ng·h/mL | Cmax [1, 9]: 1490 ng/mL | half-life [1, 9]: 0.62 h | MRT inf [1, 9]: 1.43 h | Tmax ([1]; C57BL/6, mouse, in vivo, 0.09 mg/kg oral, QD day 1, 5% beta-cyclodextrin, mice): 0.5 h | Tmax ([1]; C57BL/6, mouse, in vivo, 0.9 mg/kg oral, QD day 1, 5% beta-cyclodextrin, mice): 0.5 h | Tmax ([1]; C57BL/6, mouse, in vivo, 9 mg/kg oral, BID day 1, 20% beta-cyclodextrin, mice): 1 h | Tmax ([1]; Group 5 (9 mg/kg SID), C57BL/6 mice, oral): 1 h | Tmax ([1]; Group 6 (9 mg/kg BID), C57BL/6 mice, oral): 1 h | Tmax ([1]; Group 9 (9 mg/kg Day 5), C57BL/6 mice, oral): 1 h | cognitive performance, Morris water maze (place learning, probe tests) [2]: no significant cognitive improvement | IC50 [3]: 10 nM | cognitive performance, Morris water maze ([4]; 12 days): significant cognitive improvement | performance in the Morris water maze ([4]; two months): performed significantly better; also recorded: significant cognitive improvement | transcript encoding p62 ([5]; SH-SY5Y (FIG. 8e)): induced upregulation; also recorded: increased | mRNA levels of a set of autophagy-related genes (incl. Atg1) ([5]; SH-SY5Y (FIG. 8d)): unaffected

C#Cc1cccc(-c2cc(=O)n(C)c3ccc([C@](O)(c4ccc(Cl)cc4)c4cncn4C)cc23)c1 [LNK-754, (R)-6-[(4-chlorophenyl)-hydroxyl-(1-methyl-1-H-imidazol-5-yl)-methyl]-4-(3-ethynylphenyl)-1-methyl-2-(1H)-quinonlinone]
increase in insulin stimulation ([6]; 2.5 days of incubation): ~75% | increase in insulin stimulation ([6]; 3 days of incubation): ~55% | insulin secretion under basal glucose conditions ([6]; basal glucose (3 nM)): not under basal glucose conditions; also recorded: does not affect basal insulin secretion
